# Test results as given in US20250161319A1, “USE OF HPK1 INHIBITOR IN TREATMENT OF INTERFERON-RELATED DISEASES” (priority 2022, published 2025).
# Tests used:
# p38-alpha = p38-alpha (Homo sapiens (Human), UniProt Q16539); assay: Kinase panel inhibition rate at 10 μM; format: biochemical
# JAK1 = JAK1 (Homo sapiens (Human), UniProt P23458); assay: Kinase panel inhibition rate at 10 μM; format: biochemical
# PI3Kα = PI3Kα (Homo sapiens (Human), UniProt P42336); assay: Kinase panel inhibition rate at 10 μM; format: biochemical
# HER2 = HER2 (Homo sapiens (Human), UniProt P04626); assay: Kinase panel inhibition rate at 10 μM; format: biochemical
# GCK [1] = target: T1, GCK (Homo sapiens (Human), UniProt Q12851); assay: Inhibition of GCK kinase activity in vitro (ADP-Glo); format: biochemical
# T1 sequence (Q12851 whole entry): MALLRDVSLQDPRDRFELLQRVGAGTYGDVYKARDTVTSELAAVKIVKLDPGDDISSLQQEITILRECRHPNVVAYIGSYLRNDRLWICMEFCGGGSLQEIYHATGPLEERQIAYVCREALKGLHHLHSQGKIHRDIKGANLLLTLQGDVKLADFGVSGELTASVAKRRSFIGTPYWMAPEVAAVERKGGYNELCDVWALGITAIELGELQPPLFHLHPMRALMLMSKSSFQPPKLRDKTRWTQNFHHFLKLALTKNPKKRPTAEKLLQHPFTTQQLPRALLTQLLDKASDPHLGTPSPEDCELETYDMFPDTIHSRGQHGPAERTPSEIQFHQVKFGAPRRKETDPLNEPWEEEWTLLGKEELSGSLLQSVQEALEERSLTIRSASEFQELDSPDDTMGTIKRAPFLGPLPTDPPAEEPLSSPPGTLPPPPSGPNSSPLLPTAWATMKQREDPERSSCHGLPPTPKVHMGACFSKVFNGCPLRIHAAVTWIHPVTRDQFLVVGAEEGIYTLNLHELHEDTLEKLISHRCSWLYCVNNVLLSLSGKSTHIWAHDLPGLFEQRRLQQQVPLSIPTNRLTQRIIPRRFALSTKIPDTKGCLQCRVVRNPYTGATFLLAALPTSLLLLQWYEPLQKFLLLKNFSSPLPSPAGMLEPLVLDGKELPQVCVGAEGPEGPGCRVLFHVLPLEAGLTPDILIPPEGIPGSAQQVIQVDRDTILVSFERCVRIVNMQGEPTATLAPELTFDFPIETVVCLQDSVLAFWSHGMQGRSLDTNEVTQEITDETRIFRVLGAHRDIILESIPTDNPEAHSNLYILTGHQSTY
# Description: (§1) The starting concentration for all tested compounds was 10 μM, and diluted in three-fold concentration gradient for a total of 10 concentration points in duplicate. […] A mixture of 2-fold concentration of MBP and ATP was prepare in the kinase buffer, and 2.5 μL of prepared mixture of 2-fold concentration of MBP and ATP was added into the above reaction system for the reaction, centrifuged at 1000 g for 30 s, and then incubated at room temperature for 1 h. 5 μL of ADP-Glo reagent was added into the reaction system, and incubated at room temperature for 40 min. 10 μL of kinase detection reagent was added and incubated at room temperature for 40 min.
# ERK1.2 = assay: Kinase panel inhibition rate at 10 μM; format: biochemical
# IGFIR = IGFIR (Homo sapiens (Human), UniProt P08069); assay: Kinase panel inhibition rate at 10 μM; format: biochemical
# AKT1 = AKT1 (Homo sapiens (Human), UniProt P31749); assay: Kinase panel inhibition rate at 10 μM; format: biochemical
# HPK1 [2] = target: T2, HPK1 (Homo sapiens (Human), UniProt Q92918); assay: Inhibition of HPK1 kinase activity in vitro (ADP-Glo), compounds of Formula I-2; format: biochemical
# T2 sequence (Q92918 whole entry): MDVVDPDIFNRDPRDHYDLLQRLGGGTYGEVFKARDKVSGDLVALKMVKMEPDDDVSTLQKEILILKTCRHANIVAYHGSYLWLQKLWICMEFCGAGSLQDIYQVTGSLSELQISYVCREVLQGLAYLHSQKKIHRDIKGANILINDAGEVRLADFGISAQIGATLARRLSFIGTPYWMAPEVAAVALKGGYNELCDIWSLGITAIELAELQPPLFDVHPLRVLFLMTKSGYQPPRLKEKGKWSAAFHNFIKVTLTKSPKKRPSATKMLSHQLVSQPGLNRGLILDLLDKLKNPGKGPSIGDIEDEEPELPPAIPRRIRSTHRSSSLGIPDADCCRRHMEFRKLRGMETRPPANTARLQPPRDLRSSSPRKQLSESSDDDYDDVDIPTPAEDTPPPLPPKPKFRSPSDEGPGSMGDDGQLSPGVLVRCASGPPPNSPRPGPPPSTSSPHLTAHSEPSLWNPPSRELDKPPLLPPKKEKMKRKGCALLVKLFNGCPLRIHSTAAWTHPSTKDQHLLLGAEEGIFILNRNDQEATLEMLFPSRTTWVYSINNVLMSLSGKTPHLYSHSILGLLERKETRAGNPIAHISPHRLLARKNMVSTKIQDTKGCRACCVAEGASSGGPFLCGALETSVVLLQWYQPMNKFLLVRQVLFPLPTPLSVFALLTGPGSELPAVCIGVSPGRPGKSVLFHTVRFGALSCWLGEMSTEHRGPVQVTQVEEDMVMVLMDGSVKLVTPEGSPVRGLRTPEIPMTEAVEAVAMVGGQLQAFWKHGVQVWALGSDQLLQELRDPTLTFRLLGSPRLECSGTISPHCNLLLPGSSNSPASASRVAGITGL
# Description: The starting concentration for all tested compounds was 10 μM, and diluted in three-fold concentration gradient for a total of 10 concentration points in duplicate. Before the experiment, 50 μM DTT and the enzymatic reaction system buffer were prepared. […] A mixture of 2-fold concentration of MBP and ATP was prepare in the kinase buffer, and 2.5 μL of prepared mixture of 2-fold concentration of MBP and ATP was added into the above reaction system for the reaction, centrifuged at 1000 g for 30 s, and then incubated at room temperature for 1 h. 5 μL of ADP-Glo reagent was added into the reaction system, and incubated at room temperature for 40 min. 10 μL of kinase detection reagent was added and incubated at room temperature for 40 min. […] In the above formula, empd refers to the tested compound, PC refers to the positive control, and VC refers to the negative control.
# MNK1/2 = assay: Kinase panel inhibition rate at 10 μM; format: biochemical
# EGFR = EGFR (Homo sapiens (Human), UniProt P00533); assay: Kinase panel inhibition rate at 10 μM; format: biochemical
# TNIK [3] = target: T3, TNIK (Homo sapiens (Human), UniProt Q9UKE5); assay: Inhibition of TNIK kinase activity in vitro (ADP-Glo); format: biochemical
# Description: as §1
# Target sequence in this assay (Q9UKE5 whole entry): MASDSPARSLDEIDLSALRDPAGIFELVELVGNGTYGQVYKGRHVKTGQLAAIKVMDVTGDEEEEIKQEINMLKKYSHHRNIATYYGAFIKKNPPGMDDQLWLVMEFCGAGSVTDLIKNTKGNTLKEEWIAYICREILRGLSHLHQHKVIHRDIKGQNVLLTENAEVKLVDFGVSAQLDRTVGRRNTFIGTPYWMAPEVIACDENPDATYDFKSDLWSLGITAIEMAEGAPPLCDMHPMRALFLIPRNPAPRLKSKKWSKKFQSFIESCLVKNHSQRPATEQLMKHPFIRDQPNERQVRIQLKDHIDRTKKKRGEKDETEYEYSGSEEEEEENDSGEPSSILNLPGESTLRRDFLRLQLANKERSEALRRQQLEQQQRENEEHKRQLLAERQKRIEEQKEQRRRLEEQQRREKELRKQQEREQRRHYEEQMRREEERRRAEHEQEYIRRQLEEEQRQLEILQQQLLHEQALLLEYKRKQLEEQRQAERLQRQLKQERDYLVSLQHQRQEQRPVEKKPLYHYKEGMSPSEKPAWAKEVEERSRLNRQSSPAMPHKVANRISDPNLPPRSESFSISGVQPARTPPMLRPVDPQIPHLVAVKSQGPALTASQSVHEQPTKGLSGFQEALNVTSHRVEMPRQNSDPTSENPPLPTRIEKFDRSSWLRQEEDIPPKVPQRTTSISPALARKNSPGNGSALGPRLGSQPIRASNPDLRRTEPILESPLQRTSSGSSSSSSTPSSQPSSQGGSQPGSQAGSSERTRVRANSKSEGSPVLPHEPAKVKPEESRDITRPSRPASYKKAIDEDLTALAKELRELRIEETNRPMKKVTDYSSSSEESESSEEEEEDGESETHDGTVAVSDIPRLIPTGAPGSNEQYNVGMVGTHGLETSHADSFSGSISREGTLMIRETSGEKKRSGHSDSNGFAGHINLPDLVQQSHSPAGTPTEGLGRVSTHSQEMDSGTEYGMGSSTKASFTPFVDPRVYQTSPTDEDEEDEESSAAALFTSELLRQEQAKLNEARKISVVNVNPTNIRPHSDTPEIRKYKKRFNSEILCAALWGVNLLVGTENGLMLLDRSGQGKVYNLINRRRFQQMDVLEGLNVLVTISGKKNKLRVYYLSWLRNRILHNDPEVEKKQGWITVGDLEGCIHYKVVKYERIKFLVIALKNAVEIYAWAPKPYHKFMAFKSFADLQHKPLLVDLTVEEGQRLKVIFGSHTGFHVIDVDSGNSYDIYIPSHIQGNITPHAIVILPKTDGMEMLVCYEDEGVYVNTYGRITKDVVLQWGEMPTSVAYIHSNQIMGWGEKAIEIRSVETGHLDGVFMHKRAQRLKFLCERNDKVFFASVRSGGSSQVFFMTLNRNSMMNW
# [4] = Determination of pharmacokinetic parameters in SD rats; format: in vivo; details: rat, plasma, oral; male SD rats; intravenously 2 mg/kg, gavage 10 mg/kg; read-out: Absolute oral bioavailability %
# Description: The compounds to be tested were administered intravenously (2 mg/kg) and by gavage ([…]) to three male SD rats, respectively, and the blood concentration of the compounds to be tested in plasma was quantified by liquid chromatography tandem mass spectrometry ([…]), and the pharmacokinetic parameters were calculated to investigate the pharmacokinetic profiles of the compounds to be tested in the SD male rats. For the compounds to be tested, blood was taken at the time points of 0.25 h, 0.5 h, 1 h, 2 h, 4 h, 6 h, 8 h and 24 h after oral administration, and blood was taken at the time points of 0.083 h, 0.25 h, 0.5 h, 1 h, 2 h, 4 h, 6 h, 8 h and 24 h after intravenous administration. Subsequently, 50 μL of plasma sample was transferred to a 96-well plate and 250 μLACN (internal standard containing 260 ng/ml toluenesulfonylbutyramide) to precipitate proteins, and centrifuged at 4° C. and 4000 rpm for 20 min, 150 μL of the supernatant was transferred to a new 96-well plate and mixed with 150 μL of 0.1% FA/water, and then 5 μL of the resulting solution was loaded on LC-MS/MS for analysis.
# ROS1 = ROS1 (Homo sapiens (Human), UniProt P08922); assay: Kinase panel inhibition rate at 10 μM; format: biochemical
# LCK = LCK (Homo sapiens (Human), UniProt P06239); assay: Kinase panel inhibition rate at 10 μM; format: biochemical
# ZAP70 = ZAP70 (Homo sapiens (Human), UniProt P43403); assay: Kinase panel inhibition rate at 10 μM; format: biochemical
# CDK4 = CDK4 (Homo sapiens (Human), UniProt P11802); assay: Kinase panel inhibition rate at 10 μM; format: biochemical
# CDK4, sequence (P11802 whole entry): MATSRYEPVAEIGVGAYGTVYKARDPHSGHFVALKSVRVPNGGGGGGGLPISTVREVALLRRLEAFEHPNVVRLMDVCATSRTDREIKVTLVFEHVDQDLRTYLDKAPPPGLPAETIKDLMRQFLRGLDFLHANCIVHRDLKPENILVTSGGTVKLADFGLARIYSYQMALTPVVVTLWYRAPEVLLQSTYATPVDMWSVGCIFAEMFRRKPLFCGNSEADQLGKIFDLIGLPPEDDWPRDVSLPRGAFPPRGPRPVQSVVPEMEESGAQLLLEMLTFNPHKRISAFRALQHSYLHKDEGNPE
# CDK4, sequence (P30281 whole entry partner): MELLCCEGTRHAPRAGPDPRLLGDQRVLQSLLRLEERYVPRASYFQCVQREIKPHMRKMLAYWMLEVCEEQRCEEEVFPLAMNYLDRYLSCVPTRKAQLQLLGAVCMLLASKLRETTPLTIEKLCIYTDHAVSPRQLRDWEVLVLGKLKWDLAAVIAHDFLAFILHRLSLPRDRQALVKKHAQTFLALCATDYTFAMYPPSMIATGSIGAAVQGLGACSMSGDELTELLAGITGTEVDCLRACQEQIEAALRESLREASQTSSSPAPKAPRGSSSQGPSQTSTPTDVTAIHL
# CK1gamma1 = CK1gamma1 (Homo sapiens (Human), UniProt Q9HCP0); assay: Kinase panel inhibition rate at 10 μM; format: biochemical
# CK1gamma1, sequence (Q9HCP0 whole entry): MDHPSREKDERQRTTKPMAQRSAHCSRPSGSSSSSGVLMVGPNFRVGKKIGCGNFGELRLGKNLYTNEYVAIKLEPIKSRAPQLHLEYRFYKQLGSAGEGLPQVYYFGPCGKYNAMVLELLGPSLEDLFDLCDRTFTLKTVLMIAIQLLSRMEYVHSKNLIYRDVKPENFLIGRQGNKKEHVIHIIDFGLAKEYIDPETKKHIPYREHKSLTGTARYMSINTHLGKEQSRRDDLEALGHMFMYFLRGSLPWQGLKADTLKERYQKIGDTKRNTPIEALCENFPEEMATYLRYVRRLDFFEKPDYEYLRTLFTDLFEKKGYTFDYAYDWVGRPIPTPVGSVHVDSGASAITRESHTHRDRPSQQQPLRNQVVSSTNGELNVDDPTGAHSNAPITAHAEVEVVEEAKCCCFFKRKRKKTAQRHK
# CSF1R = CSF1R (Homo sapiens (Human), UniProt P07333); assay: Kinase panel inhibition rate at 10 μM; format: biochemical
# [5] = Acute toxicity assay of DD02001A_trans in mice by gavage; format: in vivo; details: single dose, observed 14 days
# Description: Mice were given DD02001A_trans (2000, 1500, 1000, and 500 mg/kg) by gavage in a single dose, respectively, and the responses of the mice after administration and their deaths within two weeks were recorded. • 2.2.5.1 Animals: Kunming breed mice (purchased from Guangdong Provincial Laboratory Animal Centre, License No.: SCXK(GD) 2018-0002), 10 mice, half male and half female, weighing 18-22 g. The mice were kept for three days to adapt to the environment. […] Necropsy was carried out on the dead animals in time to record the lesions. If obvious changes are visible to naked eyes, pathological section should be made.
# IKK-beta = IKK-beta (Homo sapiens (Human), UniProt O14920); assay: Kinase panel inhibition rate at 10 μM; format: biochemical
# PDK1 [6] = target: T4, PDK1 (Homo sapiens (Human), UniProt O15530); assay: Inhibition of PDK1 kinase activity in vitro (ADP-Glo); format: biochemical
# T4 sequence (O15530 whole entry): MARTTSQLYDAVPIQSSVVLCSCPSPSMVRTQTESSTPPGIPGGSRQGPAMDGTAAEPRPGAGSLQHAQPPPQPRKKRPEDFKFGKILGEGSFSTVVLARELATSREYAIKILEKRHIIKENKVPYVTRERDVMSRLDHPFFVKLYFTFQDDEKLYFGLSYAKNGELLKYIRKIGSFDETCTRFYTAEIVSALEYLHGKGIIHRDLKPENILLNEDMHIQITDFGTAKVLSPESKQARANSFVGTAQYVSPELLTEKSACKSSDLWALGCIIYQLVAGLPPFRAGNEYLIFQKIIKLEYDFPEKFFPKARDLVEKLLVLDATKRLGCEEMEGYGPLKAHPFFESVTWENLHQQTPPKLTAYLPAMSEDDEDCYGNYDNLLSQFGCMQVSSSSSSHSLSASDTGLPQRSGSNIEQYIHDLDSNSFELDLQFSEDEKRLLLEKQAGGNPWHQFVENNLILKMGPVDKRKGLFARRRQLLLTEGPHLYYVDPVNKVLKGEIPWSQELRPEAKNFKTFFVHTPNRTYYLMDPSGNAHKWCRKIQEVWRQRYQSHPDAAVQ
# Description: as §1
# ATR = ATR (Homo sapiens (Human), UniProt Q13535); assay: Kinase panel inhibition rate at 10 μM; format: biochemical
# SYK = SYK (Homo sapiens (Human), UniProt P43405); assay: Kinase panel inhibition rate at 10 μM; format: biochemical
# CDK7 = CDK7 (Homo sapiens (Human), UniProt P50613); assay: Kinase panel inhibition rate at 10 μM; format: biochemical
# CDK12 = CDK12 (Homo sapiens (Human), UniProt Q9NYV4); assay: Kinase panel inhibition rate at 10 μM; format: biochemical
# LYNB = LYNB (Homo sapiens (Human), UniProt P07948); assay: Kinase panel inhibition rate at 10 μM; format: biochemical
# [7] = Oral maximum tolerated dose / oral acute toxicity test in mice; format: in vivo; details: for Death, Female mice / Death, Male mice: P.O.
# Source text: The inventors tested representative compounds for oral maximum tolerated dose in mice.
# [8] = test system: Feline Infectious Peritonitis; assay: Animal clinical trial in cats with Feline Infectious Peritonitis; format: in vivo; details: 20 days; for ALB/GLB, After treatment / Feline serum amyloid A (fSAA, mg/L), After treatment: 1.5 mg/kg twice a day; for body weight (kg), After treatment: injection 1.5 mg/kg twice a day
# Source text: Therefore, the inventors hypothesized that HPK1 inhibitors might have therapeutic effects on Feline Infectious Peritonitis. To validate this hypothesis, the inventors conducted an animal clinical trial. Three animals were included in the experiment, all of them suffered from Feline Infectious Peritonitis, aged between 5-12 months, one was female and the other two were male (Table 4).
# TNIK [9] = target: T3, TNIK; assay: In vitro enzyme activity, ADP-Glo method (Example 3); format: biochemical; details: recombinant protein, read-out: TNIK inhibiting activity level (IC50)
# Description: (§2) ADP-Glo™ Kinase Assay is a luminescent ADP assay that provides a versatile, homogeneous, high-throughput screening method to measure kinase activity by quantifying the amount of ADP produced during the kinase reaction. The assay was performed in two steps; first, after the kinase reaction, an equal volume of ADP-Glo™ Reagent was added to quench the kinase reaction and consume the remaining ATP. Second, the Kinase Assay Reagent was added to concurrently convert ADP to ATP and allow measurement of newly synthesized ATP using the luciferase/luciferin reaction. The light produced was measured using a photometer. Luminescence can be correlated with ADP concentration by using an ATP to ADP conversion curve. […] Meanwhile, better selectivity was shown on kinases with closer homology such as GCK/TNIK/PDK1.
# Target sequence in this assay (Q9UKE5 whole entry, species assumed): as the sequence (Q9UKE5 whole entry) above
# PDK1 [10] = target: T4, PDK1; assay: as above; format: biochemical; details: recombinant protein, read-out: PDK1 inhibiting activity level (IC50)
# Description: as §2
# HPK1 [11] = target: T2, HPK1; assay: as above; format: biochemical; details: recombinant protein, read-out: HPK1 inhibiting activity level (IC50)
# Description: as §2
# GCK [12] = target: T1, GCK; assay: as above; format: biochemical; details: recombinant protein, read-out: GCK inhibiting activity level (IC50)
# Description: as §2
# p38-alpha, sequence (Q16539 whole entry): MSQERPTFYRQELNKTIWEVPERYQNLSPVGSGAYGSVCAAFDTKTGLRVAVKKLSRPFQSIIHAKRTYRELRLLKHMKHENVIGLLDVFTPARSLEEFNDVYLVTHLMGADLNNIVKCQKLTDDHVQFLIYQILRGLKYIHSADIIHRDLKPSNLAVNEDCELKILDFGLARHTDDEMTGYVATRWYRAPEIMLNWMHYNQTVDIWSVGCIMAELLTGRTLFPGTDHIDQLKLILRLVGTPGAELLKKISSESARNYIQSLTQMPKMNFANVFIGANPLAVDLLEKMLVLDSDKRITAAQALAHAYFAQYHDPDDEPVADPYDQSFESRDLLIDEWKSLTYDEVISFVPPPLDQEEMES
structure (smiles),measurement,setting,value
"Cn1cccc1-c1cc2cc(NC(=O)[C@@H]3C[C@H]3F)ncc2c(N)c1F [DD02001A trans, (1S,2R)—N-(8-amino-7-fluoro-6-(1-methyl-1H-pyrrole-2-yl)isoquinolin-3-yl)-2-fluorocyclopropane-1-carboxamide]",inhibition at 10 µM,p38-alpha,< 40%
same,inhibition at 10 µM,JAK1,97.3%
same,inhibition at 10 µM,PI3Kα,79.1%
same,inhibition at 10 µM,HER2,< 40%
same,IC50,GCK [1],> 10 nM
same,inhibition rate ERK1.2,ERK1.2,< 40%
same,inhibition at 10 µM,IGFIR,< 40%
same,inhibition at 10 µM,AKT1,< 40%
same,IC50,HPK1 [2],< 10 nM
same,inhibition rate MNK1/2,MNK1/2,< 40%
same,inhibition at 10 µM,EGFR,< 40%
same,IC50,TNIK [3],> 10 nM
same,bioavailability,[4],61.3%
same,inhibition at 10 µM,ROS1,< 40%
same,inhibition at 10 µM,LCK,87.6%
same,inhibition at 10 µM,ZAP70,< 40%
same,inhibition at 10 µM,CDK4,< 40%
same,inhibition at 10 µM,CK1gamma1,< 40%
same,inhibition at 10 µM,CSF1R,102%
same,maximum tolerated dosage by gavage,[5],1000 to 1500 mg/kg
same,inhibition at 10 µM,IKK-beta,< 40%
same,IC50,PDK1 [6],> 10000 nM
same,inhibition at 10 µM,ATR,< 40%
same,inhibition at 10 µM,SYK,85.1%
same,inhibition at 10 µM,CDK7,< 40%
same,inhibition at 10 µM,CDK12,< 40%
same,inhibition at 10 µM,LYNB,82.9%
CN1CCC(n2cc(Nc3ncc4cccc(O[C@H]5CC[C@H](N)CC5)c4n3)cn2)CC1 [Compound C1],"Death, Female mice",[7]; 225 mg/kg,0/5
same,"Death, Male mice",[7]; 225 mg/kg,0/5
same,"Death, Female mice",[7]; 337.5 mg/kg,0/5
same,"Death, Male mice",[7]; 337.5 mg/kg,0/5
same,"Death, Female mice",[7]; 506.3 mg/kg,1/5
same,"Death, Male mice",[7]; 506.3 mg/kg,2/5
same,"Death, Female mice",[7]; 759.4 mg/kg,4/5
same,"Death, Male mice",[7]; 759.4 mg/kg,4/5
same,"Death, Female mice",[7]; 1139.1 mg/kg,5/5
same,"Death, Male mice",[7]; 1139.1 mg/kg,5/5
same,MTD,"[7]; mouse, in vivo, po, mice, single dose",338 mg/kg
same,"ALB/GLB, After treatment","[8]; Animal No. 1, before treatment 0.5",0.7
same,"body weight (kg), After treatment","[8]; Animal No. 1, before treatment 1.5",2.15 kg
same,"ALB/GLB, After treatment","[8]; Animal No. 2, before treatment 0.35",0.47
same,"Feline serum amyloid A (fSAA, mg/L), After treatment","[8]; Animal No. 2, before treatment 70.47",15.14 mg/L
same,"body weight (kg), After treatment","[8]; Animal No. 2, before treatment 2.31",2.81 kg
same,"ALB/GLB, After treatment","[8]; Animal No. 3, before treatment 0.4",0.5
same,"Feline serum amyloid A (fSAA, mg/L), After treatment","[8]; Animal No. 3, before treatment 104.88",17.97 mg/L
same,"body weight (kg), After treatment","[8]; Animal No. 3, before treatment 2.9",3.2 kg
same,IC50,TNIK [9],100 to 1000 nM
same,IC50,PDK1 [10],100 to 1000 nM
same,IC50,HPK1 [11],≤ 10 nM
same,IC50,GCK [12],10 to 100 nM
"Cn1cccc1-c1cc2cc(NC(=O)[C@@H]3C[C@@H]3F)ncc2c(N)c1F [DD02001A cis, (1S,2S)—N-(8-amino-7-fluoro-6-(1-methyl-1H-pyrrole-2-yl)isoquinolin-3-yl)-2-fluorocyclopropane-1-carboxamide]",IC50,"GCK [1]; ADP-Glo, read-out: Activity/IC50, nM GCK",> 10 nM
same,IC50,"HPK1 [2]; ADP-Glo, read-out: Activity/IC50, nM HPK1",< 10 nM
same,IC50,"TNIK [3]; ADP-Glo, read-out: Activity/IC50, nM TNIK",> 10 nM
same,IC50,"PDK1 [6]; ADP-Glo, read-out: Activity/IC50, nM PDK1",> 7000 nM
